These results are taken from patent publication US20170128518A1, “METHODS AND MATERIALS FOR IDENTIFYING AND TREATING MAMMALS RESISTANT TO PROTEASOME INHIBITOR TREATMENTS” (Mayo Foundation for Medical Education and Research, priority 2014, published 2017).

The term IC50 denotes the concentration that gives 50% inhibition.

“Also recorded” adds a separate entry of the source. Peptide text beside a SMILES is read from it. * marks the point of attachment. Cbz = O=C(OCc1ccccc1)*; CH2F = FC* Bounds are passed on as bounds.

One data set deals with WT and BR WM cells. Put plainly: Mitochondrial outer membrane permeability (TMRM), WM cell lines. In kind it is cell-based, human. The following applies: pre-treatment with pan-caspase inhibitor. As for the experimental part:
Cells were treated with different agents for 48 hours and assessed for MOMP using tetramethylrhodamine methyl ester [TMRM] (Life Technologies). TMRM was directly added to the cell cultures at 100 nmol/1 concentrations and incubated at 37° C. in the dark for 15 minutes. At the end of the incubation, cells were washed twice with cold PBS containing 2% FBS and analyzed. The cells were washed for fluorescence (FL2) and analyzed by BD Accuri, the C6 flow cytometer and its software. Data from at least 20,000 events per sample were collected and analyzed. TMRM-negative (%) cells were calculated to determine % MOMP.

Data set [1] has as its target T1, 20S proteasome b5 subunit (Homo sapiens, UniProt P28074).
T1 construct: Cells were lysed at 4×10^6 cells/ml in proteasomal activity assay buffer; endogenous in cells; host or cells: BCWM.1, MWCL-1, RPCI-WM1 and their BR subclones (lysates)
T1 sequence (P28074 60-263): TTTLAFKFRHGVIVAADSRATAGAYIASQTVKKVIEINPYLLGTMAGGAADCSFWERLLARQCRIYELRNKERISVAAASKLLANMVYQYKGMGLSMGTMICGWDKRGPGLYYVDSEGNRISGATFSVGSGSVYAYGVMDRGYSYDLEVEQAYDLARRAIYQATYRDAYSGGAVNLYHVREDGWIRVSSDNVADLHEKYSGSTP
The data set can be described thus: Proteasomal activity assay, chymotrypsin-like (LLVY-AMC), WM cells. The following applies: 10 nmol/l; WT and BR WM cells. It is filed as biochemical. As for the experimental part: FIGS. 10A and 10B are a series of graphs plotting the effect of b-AP15 treatment on 20S proteasome, b5-subunit (chymotrypsin-like) catalytic activity in WT and BR WM cells.
Cells were lysed at 4×10^6 cells/ml in proteasomal activity assay buffer [assay buffer; 25 mmol/1 HEPES buffer, pH7.5 containing 0.5 mmol/1 EDTA, 0.05% Nonidet P-40, 0.01% sodium dodecyl sulfate (SDS)] and immediately used in the assay. Enzyme reactions were performed in 96-well plates with 100 μl of final volume containing […] fluorogenic peptide substrates. The substrates used were LLVY-AMC for chymotrypsin like activity, LLE-AMC for caspase-like activity and LRR-AMC for trypsin-like activity. Reactions were incubated at 37° C. for 1 hour and fluorescence was measured at 360/460 using a BioTek synergy HT plate reader (BioTek, Winooski, Vt.).

In another data set the test system is MCL patients. The following applies: bortezomib-based therapies; cited from earlier work.
The subject of a further data set is BCWM.1 cell line. The data set can be described thus: MTS viability assay, BCWM.1. It is filed as cell-based, human. Here is the method: (§1) FIGS. 4A-4D show the characterization of BR WM models, established by subjecting WM cancer cell lines (n=3) chronic drug exposure. […] FIG. 4C is a graph plotting relative fluorescence units in an assay to examine PSMB5 enzyme function by flow cytometry.
(§2) Twenty thousand cells/200 μl in quadruplicates were incubated with serially diluted b-AP15 (1-1000 nmol/l) in 96-well plates at 37° C. for 72 hours. MTS (3-(4,5-dimethylthiazol-2-yl)-5-(3-carboxymethoxyphenyl)-2-(4-sulfophenyl)-2H-tetrazolium) reagent (Molecular Probes, Eugene, Oreg.) was added at 40 μl/well and the plates were further incubated at 37° C. for 3 hours and the developed color was read at 490 nm using a BioTek synergy HT plate reader against blanks with no cells.
In general terms: Formazan colour is commonly taken as a measure of viable cells.

Another data set relates to RPCI-WM1. The data set can be described thus: MTS viability assay, RPCI-WM1. It is filed as cell-based, human. The note with it: Homo sapiens, MTS assay. As for the experimental part: as §2
The subject of a further data set is MWCL-1/BR. The data set can be described thus: MTS viability assay, MWCL-1/BR. In kind it is cell-based, human. The note with it: Homo sapiens; MTS assay, MWCL-1/BR. Here is the method: as §2
For another data set, the system named is MWCL-1 cells. The data set can be described thus: MTS viability assay, MWCL-1. It is filed as cell-based, human. The following applies: Homo sapiens, MTS assay. Here is the method: as §2
The subject of a further data set is BCWM.1/BR. The data set can be described thus: MTS viability assay, BCWM.1/BR. It is filed as cell-based, human. As for the experimental part: as §1, §2
The next data set addresses β5/PSMB5 (Homo sapiens, UniProt P28074). Put plainly: 26S proteasome activity, Suc-LLVY-AMC cleavage, WT and BR plasma cell cancer cells. The following applies: in the presence of bortezomib. In kind it is biochemical. Here is the method: FIGS. 3A-3C are a series of graphs showing that bortezomib resistance is associated with increased proteasomal enzymatic activity.
Studies were performed to investigate whether an increase in β1i and β5 proteins corresponded with increased protease activity. WT and BR cancer cells were incubated with β1i specific (Ac-PAL-AMC substrate) and β5 specific (Suc-LLVY-AMC substrate) fluorogenic peptides (condition details in FIG. 3 description above). β5 chymotryptic activity (primary target of bortezomib) was assessed first and found in BR cells.

The next data set relates to RPCI-WM1/BR. The data set can be described thus: MTS viability assay, RPCI-WM1/BR. In kind it is cell-based, human. The following applies: Homo sapiens, MTS assay. As for the experimental part: as §2
The subject of data set [2] is treatment naïve MM patients. The note with it: bortezomib-based therapies; cited from earlier work.
Data set [3] has as its system BR human MM and WM cell lines. Put plainly: Growth insensitivity of BR cell lines vs WT counterparts. In kind it is cell-based. The note with it: BR cell lines compared to respective WT counterparts. The source says: (§3) To investigate the mechanism of induction of bortezomib resistance, preclinical models of acquired bortezomib resistance (BR) were developed using human MM and WM cell lines.

For another data set, the system named is OPM2 cell line (WT). Put plainly: MTS assay, OPM2 WT. The following applies: Homo sapiens, OPM-2. In kind it is cell-based.
Source text: (§4) FIGS. 1A-1C show the characterization of bortezomib-resistance (BR) models, established by subjecting plasma cell cancer cell lines (n=6) chronic drug exposure. FIG. 1A is a graph plotting the results of an MTS assay for an OPM2 cell line (representative model).
as §3

The next data set concerns OPM2 BR derivative. The data set can be described thus: MTS assay, OPM2 BR derivative. It is filed as cell-based. The following applies: Homo sapiens, OPM-2.
Source text: as §4, §3

Data set [4] deals with bortezomib or carfilzomib-resistant MM and WM cell lines. Put plainly: VLX1570-sensitivity screen (Celltiter Glo viability assay). In kind it is cell-based, human. The note with it: bortezomib/carfilzomib-resistant tumor cells. The source says: FIG. 5 is a graph plotting sensitivity of bortezomib or carfilzomib-resistant tumor cells to drugs with a mechanism directed at targets upstream of the 20S proteasome. An inhibitor of the deubiquitinase (DUB) enzymes located in the 19S cap of the proteasome that are upstream of β5 and β1i, was used.
Background: ATP-based viability assays read luminescence as a measure of living cells.

`COC(=O)C[C@H](NC(=O)[C@H](C)NC(=O)[C@@H](NC(=O)OCc1ccccc1)C(C)C)C(=O)CF` [z.VAD.fmk] (Cbz-Val-Ala-Asp(OMe)-CH2F): the “MOMP in b-AP15 co-treated WM cells” value in the data set on WT and BR WM cells is “significantly reduced MOMP”.
Consider `CC(C)C[C@H](NC(=O)[C@H](CCc1ccccc1)NC(=O)CN1CCOCC1)C(=O)N[C@@H](Cc1ccccc1)C(=O)N[C@@H](CC(C)C)C(=O)[C@@]1(C)CO1` [carfilzomib], for which, in data set [1], the “chymotrypsin-like activity (LLVY) of the b5 subunit” value was “significantly diminished”.
`CC(C)C[C@H](NC(=O)[C@H](Cc1ccccc1)NC(=O)c1cnccn1)B(O)O` [bortezomib]: the response rate result was “about 75%” in the data set with MCL patients and “about 100%” in data set [2]. The half-inhibitory concentration (IC50) in the data set on BCWM.1 cell line (Homo sapiens, BCWM1, MTS assay) was 18 nM; in the data set on BCWM.1 cell line (MTS assay), 11.4 nM; in the data set with RPCI-WM1 it was 27 nM; in the data set with MWCL-1/BR, 65.2 nM; with MWCL-1 cells, 16.6 nM; with BCWM.1/BR (Homo sapiens, BCWM1, MTS assay) it was greater than 1000 nM. In addition, the half-maximal inhibitory concentration (IC50) is 720 nM with BCWM.1/BR (MTS assay), 125 nM in the data set with RPCI-WM1/BR, 6.14 nM with OPM2 cell line (WT) and greater than 50 nM with OPM2 BR derivative. The “chymotryptic β5 activity” value at β5/PSMB5 is listed as “decreased; also recorded: inhibited the chymotryptic activity; also recorded: nearly abrogated”. In [1], the “chymotrypsin-like activity (LLVY) of the b5 subunit” value is reported as “significantly diminished”. The “increase in growth insensitivity, BR vs WT” value in [3] is on record as greater than 100 fold.
For the compound `C=CC(=O)N1CC/C(=C\c2ccc(F)c([N+](=O)[O-])c2)C(=O)/C(=C/c2ccc(F)c([N+](=O)[O-])c2)C1` [VLX1570], the cytotoxicity entry in data set [4] is “comparable cytotoxicity”.
